Laboratory results as given in US11390664B2, “Antibodies that potently neutralize hepatitis B virus and uses thereof” (priority 2015, dated 2022).

B1: HBC34-v2: HBC34 variant, W107F in the CDR3 of the VH and W107A in the CDR3 of the VL (antibody, V domains shown)
VH: ELQLVESGGGWVQPGGSQRLSCAASGRIFRSFYMSWVRQAPGKGLEWVATINQDGSEKLYVDSVKGRFTISRDNAKNSLFLQMNNLRVEDTAVYYCAAFSGNSGGMDVWGQGTTVSVSS
VL: SYELTQPPSVSVSPGQTVSIPCSGDKLGNKNVCWFQHKPGQSPVLVIYEVKYRPSGIPERFSGSNSGNTATLTISGTQAMDEAAYFCQTADSTTVVFGGGTRLTVL

Tests used:
HBV (genotype D) = test: HBV spreading in humanized uPA/SCID mice, treatment from 3 weeks post-infection; assay type: in vivo, uPA/SCID mice repopulated with primary human hepatocytes; details: for cccDNA measurements versus mice sacrificed 3 weeks post HBV infection: treated from week 3 to week 9 post-infection
[1] = system: HBsAg serotypes (adw, ady and ayw); test: ELISA binding to HBsAg serotypes; set-up: species or system hepatitis B virus; details: similar and low EC50 values
HBV = HBV neutralization on differentiated HepaRG cells; assay type: cell-based, hepatitis B virus; details: HBC34 result at 5 and 0.5 μg/ml, antibodies tested at 5, 0.5 and 0.05 μg/ml
Method: At the end of the incubation, the cells were washed and further cultivated. Medium was changed every 3 days. Infection was detected by measuring in enzyme-linked immunosorbent assay (ELISA) the levels of hepatitis B surface antigen (HBsAg) and hepatitis B e antigen (HBeAg) secreted into the culture supernatant from day 7 to 11 post-infection and by detecting HBcAg staining in an immunofluorescence assay.

[2] = system: 19 different HBsAg genotype D mutants; assay type: binding, hepatitis B virus; details: 5 μg/ml
[3] = system: antigenic loop region of the HBsAg; assay type: binding, hepatitis B virus; details: antibody at 1 μg/ml
HBV viral particles = test: Western blot on HBV viral particles under reducing conditions; assay type: binding, hepatitis B virus
From the text: Ab4 is a comparative antibody, which is also reactive against the antigenic loop.

HBsAg (adw subtype) = test: ELISA binding of HBC34 variants to HBsAg adw antigen; set-up: species or system hepatitis B virus; details: Example 11, 18 variants, FIG. 21

Molecule | cccDNA measurements versus mice sacrificed 3 weeks post HBV infection (HBV (genotype D)) | binding to three HBsAg serotypes (adw, ady and ayw) [1] | neutralization of HBV infection (HBV) | number of the 19 HBsAg mutants bound [2] | binding to three additional peptides (SEQ ID NO 53, 54, 55) [3] | reactivity in western blot (HBV viral particles) | decrease of levels of circulating HBsAg (HBV (genotype D); baseline to week 6 of treatment (week 9 post-infection)) [log] | effect of mutation(s) on binding to HBsAg compared with parental HBC34 (HBsAg (adw subtype))
C=C1[C@H](CO)[C@@H](O)C[C@@H]1n1cnc2c(=O)[nH]c(N)nc21 [entecavir, reference compound] | did not differ significantly |  |  |  |  |  |  | 
HBC34: IgG1-type fully human monoclonal antibody against HBsAg antigenic loop; VH SEQ ID NO: 41, VL SEQ ID NO: 42 | did not differ significantly | binds with high affinity | neutralized completely | 18 | recognized with a lower signal | does not react at all | > 1 | 
B1 |  |  |  |  |  |  |  | completely abolished
